From patent US7776833B2, “Use of cyclic bioisosters of purine system derivatives for treating diseases produced by disorders of niterergic and dopaminergic systems” (priority 2003, dated 2010)

Assays:
Format in all cases: in vivo, Wistar rats
[1] = system: nitric oxide synthase (NOS); assay: Nitric oxide synthase activity in brain regions, radiometric [3H]L-citrulline method; conditions: 3 x 20 mg/kg intramuscularly
Method: (§1) After the above experiments the rat brains were isolated and immediately placed in the ice cold 0.9% solution of sodium chloride. After cooling the following structures were isolated from the brain: cerebral cortex, hippocampus, mesencephalon, striatum, brainstem, hypothalamus and cerebellum. The isolated tissue was homogenized in a Potter S homogenizer for 3 minutes at 1500 rpm in 4-5 volumes of 20 mM HEPES (pH 7.5) at 4° C. The supernatants were centrifuged for 30 minutes at 11000 g at 4° C., and aliquots of the obtained supernatants were taken for determining nitrates and nitrites (NOx-), while the remaining part was mixed with cooled 20 mM of HEPES (pH 7.5), containing 0.5 mM ethylenediamine tetraacetate (EDTA), 1 mM dithiotreitol (DDT), 1 mM phenylmethylsulfonyl fluoride (PMSF), aprotinine and leupeptine at a concentration of 5 μg/ml, this mixture being used for determining nitric oxide synthase (NOS) activity.
The activity of nitric oxide synthase (NOS) was determined using a radiometric method by the rate of L-citrulline accumulation in a reaction of [^3H] L-arginine oxidation catalyzed by NOS (Bredt M., Snyder S. Nitric oxide mediates glutamate-linked enhancement of cGMP levels in the cerebellum. Proc. Natl. Acad. Sci., USA, 1989, V.86, p.9030-9033). The formation of L-citrulline in this reaction is equivalent to a biosynthesis of nitric oxide.
The reaction was initiated by adding brain supernatant in the reaction medium containing 2 μCi/ml of [3H] L-arginine, 20 mM HEPES (pH 7.4), 0.2 mM CaCl2, 5 μM FAD, 5 μM FMN, 1 mM NADPH, 50 μM of BH4. After 15-60 minutes of incubation at 37° C. a suspension of Dowex 50WX8-400 (Na^+-form), which sorbs unreacted [^3H]L-arginine, but not [^3H] L-citrulline was added to the samples. After the sorption the radioactivity of the samples was determined on a scintillation counter SL-4000 (“Intertechnique”). The activity of Ca^2+-dependent and Ca^2+-independent NOS isoforms was determined by the difference of rates of [^3H]L-citrulline formation in three parallel samples containing 2 mM EDTA (Ca^2+ chelator), 2 mM EDTA+2 mM L-NAME (inhibitor all NOS isoforms) or without inhibitors. The enzyme activity was expressed in rnol [^3H]L-citrulline acumulated per 1 minute on 1 mg of supernatant protein.
(§2) The content of protein in the samples was determined by the Bradford method (Bradford M. M. A rapid and sensitive method for quantitation of microgram quantities of protein using the principle of protein binding . Anal. Biochem., 1976, V. 72, p. 248-254) using Coumassi dye. The statistical analysis was performed using methods appropriate for respective experiments. The data are expressed as mean±standard error of mean.

[2] = system: nitrites and nitrates (NOx-); assay: Measurement of nitrates/nitrites (NOx-) in brain regions after the morphine abstinence experiment; conditions: 3 x 20 mg/kg intramuscularly
Method: as §1
To estimate the intensity of metabolism of nitric oxide in rats, quantitative determination of stable metabolites of nitrogen oxide-nitrites and nitrates (NOx-) was performed using a fluorometric method by fluorescence of naphthotriazole, a product of reaction of 2,3- diaminonaphthalene (DAN) and nitrite in an acidic medium (Misko T. R., Schilling R. J., Salvemini D. et al. A fluorometric assay for the measurement of nitrite in biological samples. Anal. Biochem., 1993, V. 214, p.11-16) with modifications (Lei B., Adachi N., Nagaro T., Arai T. Measurement of total nitric oxide metabolite (NO (x) (-)) levels in vivo. Brain. Res. Protoc., 1999, V. 4, p. 415-419).
The supernatants of brain deproteinized at 100° C. were placed in a nitrite recovery system containing 0.125 unit/ml of nitrate reductase, 25 μM NADPH and 25 μM FAD prepared in 20 mM Tris-HCl buffer pH 7.6 and incubated for 30 minutes at 37° C. For oxidation of NADPH a lactate dehydrogenase (LDH)/pyruvate system was used. Then 316.0 μM DAN solution in 0.62 M HCl was added and the mixture was incubated for 10 minutes in dark. For stabilization of fluorescence of the formed naphthotriazole, 280 mM NaOH was added. The fluorescence intensity was measured using spectrofluorometer Hitachi F-3000 at a wavelength of excitation 365 nm and emission 405 nm. To calculate the concentration of NOx- in the brain a standard solution of sodium nitrate was used. The concentration of NOx- was expressed in nmol/mg of protein.
as §2

[3] = system: physical dependence from morphine (morphine abstinence); assay: Morphine abstinence syndrome, signs scored in the open field test; conditions: Morphine − (morphine + compound); compound 3 x 20 mg/kg intramuscularly; one value for the three compounds
Method: Thirty six hours after the last injection selected motor and autonomice parameters which are specific symptoms of abstinence were monitored in the <<open field>> test (an arena with a diameter of 120 cm and wall height of 40 cm).
Med., 2002, V.29, p.1-6.). The observable signs were recorded quantitatively (if it was possible) with further assignment of an index to each sign (depending on the specific feature of the sign) and calculation of the sum of scores. The expression of the abstinence syndrome was presented as a sum of scores. The results were processed using nonparametric statistical analysis based on the Mann-Whitney test.

[4] = Groups Nos. 3-14, compound without morphine, one value for all 12 compounds
[5] = Morphine + compound, one value for the three compounds

SMILES	Activity of NOS, hippocampus [1, 4]	Activity of NOS, hypothalamus [1, 4]	Activity of NOS, midbrain [1, 4]	Activity of NOS, striatum [1, 4]	Activity of NOS, hippocampus [1, 5]	Activity of NOS, hypothalamus [1, 5]	Activity of NOS, midbrain [1, 5]	Activity of NOS, striatum [1, 5]	Nitrites, brainstem [2, 4]	Nitrites, cerebellum [2, 4]	Nitrites, cerebral cortex [2, 4]	Nitrites, hippocampus [2, 4]	Nitrites, hypothalamus [2, 4]	Nitrites, midbrain [2, 4]	Nitrites, striatum [2, 4]	Nitrites, brainstem [2, 5]	Nitrites, cerebellum [2, 5]	Nitrites, cerebral cortex [2, 5]	Nitrites, hippocampus [2, 5]	Nitrites, hypothalamus [2, 5]	also measured
Nc1cccc2c(=O)n([C@@H]3O[C@H](CO)[C@@H](O)[C@H]3O)[nH]c(=O)c12.[Na] [Compound 10, sodium salt of 5-amino-2-(β-D-ribofuranosile)benzo[d]-3H-pyridazine-1,4-dione]	3.09 ± 0.16 nmol/min/mg of protein	5.45 ± 0.24 nmol/min/mg of protein	2.60 ± 0.29 nmol/min/mg of protein	1.26 ± 0.08 nmol/min/mg of protein	2.51 ± 0.19 nmol/min/mg of protein	5.36 ± 0.33 nmol/min/mg of protein	1.99 ± 0.29 nmol/min/mg of protein	1.29 ± 0.09 nmol/min/mg of protein	6.31 ± 0.58 nmol/mg of protein	6.66 ± 0.63 nmol/mg of protein	4.31 ± 0.37 nmol/mg of protein	6.47 ± 0.72 nmol/mg of protein	6.77 ± 0.83 nmol/mg of protein	6.65 ± 0.70 nmol/mg of protein	6.11 ± 0.29 nmol/mg of protein	6.99 ± 0.82 nmol/mg of protein	5.85 ± 0.47 nmol/mg of protein	4.93 ± 0.39 nmol/mg of protein	5.24 ± 0.49 nmol/mg of protein	6.91 ± 0.58 nmol/mg of protein	Nitrites, midbrain [2, 5]: 5.75 ± 0.39 nmol/mg of protein; Nitrites, striatum [2, 5]: 3.57 ± 0.42 nmol/mg of protein; Authentic differences (ξ-square criterion) in appearance of signs of abstinence: <<Wet dog>> shakes [3]: 0.7562; Authentic differences (ξ-square criterion) in appearance of signs of abstinence: Aggression [3]: 0.8456; Authentic differences (ξ-square criterion) in appearance of signs of abstinence: Convulsions [3]: 0.7546; Authentic differences (ξ-square criterion) in appearance of signs of abstinence: Diarrhea [3]: 0.0032; Authentic differences (ξ-square criterion) in appearance of signs of abstinence: Dyspnea [3]: 0.0834; Authentic differences (ξ-square criterion) in appearance of signs of abstinence: Forelimb jogging [3]: 0.8217; Authentic differences (ξ-square criterion) in appearance of signs of abstinence: Grit with teeth [3]: 0.8652; Authentic differences (ξ-square criterion) in appearance of signs of abstinence: Mastication [3]: 0.1032; Authentic differences (ξ-square criterion) in appearance of signs of abstinence: Piloerection [3]: 0.2567; Authentic differences (ξ-square criterion) in appearance of signs of abstinence: Ptosis [3]: 0.0320; Authentic differences (ξ-square criterion) in appearance of signs of abstinence: Rhinorrhea [3]: 0.4032; Authentic differences (ξ-square criterion) in appearance of signs of abstinence: Squeak when touched [3]: 0.1342
O=C([O-])c1ccc2c(=O)[nH][nH]c(=O)c2c1.O=C([O-])c1ccc2c(=O)[nH][nH]c(=O)c2c1.[Na+].[Na+] [Compound 18, disodium salt of 6-carboxy-benzo [d]-3H-pyridazine-1,4-dione]	3.09 ± 0.16 nmol/min/mg of protein	5.45 ± 0.24 nmol/min/mg of protein	2.60 ± 0.29 nmol/min/mg of protein	1.26 ± 0.08 nmol/min/mg of protein	2.51 ± 0.19 nmol/min/mg of protein	5.36 ± 0.33 nmol/min/mg of protein	1.99 ± 0.29 nmol/min/mg of protein	1.29 ± 0.09 nmol/min/mg of protein	6.31 ± 0.58 nmol/mg of protein	6.66 ± 0.63 nmol/mg of protein	4.31 ± 0.37 nmol/mg of protein	6.47 ± 0.72 nmol/mg of protein	6.77 ± 0.83 nmol/mg of protein	6.65 ± 0.70 nmol/mg of protein	6.11 ± 0.29 nmol/mg of protein	6.99 ± 0.82 nmol/mg of protein	5.85 ± 0.47 nmol/mg of protein	4.93 ± 0.39 nmol/mg of protein	5.24 ± 0.49 nmol/mg of protein	6.91 ± 0.58 nmol/mg of protein	Nitrites, midbrain [2, 5]: 5.75 ± 0.39 nmol/mg of protein; Nitrites, striatum [2, 5]: 3.57 ± 0.42 nmol/mg of protein; Authentic differences (ξ-square criterion) in appearance of signs of abstinence: <<Wet dog>> shakes [3]: 0.7562; Authentic differences (ξ-square criterion) in appearance of signs of abstinence: Aggression [3]: 0.8456; Authentic differences (ξ-square criterion) in appearance of signs of abstinence: Convulsions [3]: 0.7546; Authentic differences (ξ-square criterion) in appearance of signs of abstinence: Diarrhea [3]: 0.0032; Authentic differences (ξ-square criterion) in appearance of signs of abstinence: Dyspnea [3]: 0.0834; Authentic differences (ξ-square criterion) in appearance of signs of abstinence: Forelimb jogging [3]: 0.8217; Authentic differences (ξ-square criterion) in appearance of signs of abstinence: Grit with teeth [3]: 0.8652; Authentic differences (ξ-square criterion) in appearance of signs of abstinence: Mastication [3]: 0.1032; Authentic differences (ξ-square criterion) in appearance of signs of abstinence: Piloerection [3]: 0.2567; Authentic differences (ξ-square criterion) in appearance of signs of abstinence: Ptosis [3]: 0.0320; Authentic differences (ξ-square criterion) in appearance of signs of abstinence: Rhinorrhea [3]: 0.4032; Authentic differences (ξ-square criterion) in appearance of signs of abstinence: Squeak when touched [3]: 0.1342
